Values after ≈ are worked out from the molar mass of the structure shown.
Assays:
Assay in all cases: ≥ marks a high value that may be exact or a test limit, other limits are often not marked, values filed in µg/mL are converted to µM
[1] = tested on: Bacillus anthracis Sterne 34F2
[2] = tested on: Bacillus subtilis var. niger ATCC 9372
Escherichia coli K91BK = tested on: Escherichia coli K91BK
Escherichia coli BL21AI = tested on: Escherichia coli BL21AI
[3] = tested on: Micrococcus luteus ATCC 10240
[4] = tested on: Bacillus subtilis KCTC 1918
[5] = tested on: Escherichia coli KCTC 1682
[6] = tested on: Pseudomonas aeruginosa KCTC 1637
[7] = tested on: Salmonella typhimurium KCTC 1926
[8] = tested on: Staphylococcus aureus KCTC 1621
[9] = tested on: Streptococcus pyogenes KCTC 3096
[10] = tested on: Aspergillus flavus KCTC 7375
[11] = tested on: Bacillus megaterium KCTC 1096
[12] = tested on: Candida albicans KCTC 7121
[13] = tested on: Fusarium oxysporum KCTC 6084
Proteus vulgaris = tested on: Proteus vulgaris
[14] = tested on: Trichosporon beigelii KCTC 7251
[15] = tested on: Mycobacterium tuberculosis H37Rv
[16] = tested on: Streptococcus pneumoniae ATCC 49619

| Structure (SMILES) | MIC [4] [µM] | MIC [5] [µM] | MIC [6] [µM] | MIC [8] [µM] | MIC [1] [µM] | MIC [2] [µM] | MIC (Escherichia coli K91BK) [µM] | further results |
| --- | --- | --- | --- | --- | --- | --- | --- | --- |
| CC[C@H](C)[C@H](NC(=O)CNC(C)=O)C(=O)NCC(=O)N[C@@H](CCCCN)C(=O)N[C@@H](Cc1ccccc1)C(=O)N[C@@H](CC(C)C)C(=O)N[C@@H](CCCCN)C(=O)N[C@@H](CCCCN)C(=O)N[C@@H](C)C(=O)N[C@@H](CCCCN)C(=O)N[C@@H](CCCCN)C(=O)N[C@@H](Cc1ccccc1)C(=O)NCC(=O)N[C@@H](CCCCN)C(=O)N[C@@H](C)C(=O)N[C@@H](Cc1ccccc1)C(=O)N[C@H](C(=O)N[C@@H](CCCCN)C(=O)N[C@H](C(=O)N[C@@H](CC(C)C)C(=O)N[C@@H](CCCCN)C(=O)N[C@@H](CCCCN)C(N)=O)[C@@H](C)CC)C(C)C [GIGKFLKKAKKFGKAFVKILKK] |  |  |  |  | 25 (≈ 63 µg/mL) | 1.56 (≈ 3.93 µg/mL) | ≥ 100 |  |
| CC(=O)N[C@@H](CCCCN)C(=O)N[C@@H](CC(C)C)C(=O)N[C@@H](Cc1c[nH]c2ccccc12)C(=O)N[C@@H](CCCCN)C(=O)N[C@@H](CCCCN)C(=O)N[C@@H](Cc1c[nH]c2ccccc12)C(=O)N[C@@H](CCCCN)C(=O)N[C@@H](CCCCN)C(=O)N[C@@H](Cc1c[nH]c2ccccc12)C(=O)N[C@@H](CCCCN)C(=O)N[C@@H](CCCCN)C(N)=O [KLWKKWKKWKK] |  |  |  |  | ≥ 100 | 25 (≈ 40.7 µg/mL) | ≥ 100 |  |
| CC[C@H](C)[C@H](NC(=O)[C@H](CCCN=C(N)N)NC(=O)[C@@H]1CCCN1C(=O)[C@H](Cc1cnc[nH]1)NC(=O)[C@@H]1CCCN1C(=O)[C@@H]1CCCN1C(=O)[C@H](CCCN=C(N)N)NC(=O)[C@@H]1CCCN1C(=O)[C@H](CCC(N)=O)NC(=O)[C@@H]1CCCN1C(=O)[C@@H](NC(=O)[C@H](Cc1ccc(O)cc1)NC(=O)[C@@H](NC(=O)[C@@H]1CCCN1C(=O)[C@H](CCCN=C(N)N)NC(=O)[C@H](CC(N)=O)NC(=O)[C@@H](N)CC(N)=O)C(C)C)[C@@H](C)CC)C(N)=O [NNRPVYIPQPRPPHPRI] |  |  |  |  |  |  |  | MIC (Escherichia coli BL21AI): 1.91 µM (≈ 3.91 µg/mL); MIC [3]: 15.2 µM (≈ 31.2 µg/mL) |
| NCCCC[C@H](NC(=O)CNC(=O)CNC(=O)[C@H](CCCCN)NC(=O)[C@H](CCCCN)NC(=O)[C@H](Cc1cnc[nH]1)NC(=O)[C@H](CS)NC(=O)[C@H](CCC(N)=O)NC(=O)[C@H](CCCCN)NC(=O)[C@@H](N)Cc1ccc(O)cc1)C(=O)N[C@@H](CCCCN)C(=O)NCC(=O)N[C@@H](CO)C(=O)NCC(N)=O [YKQCHKKGGKKGSG] |  |  |  |  |  |  |  | MIC [15]: ≥ 300 µM; MIC [16]: ≥ 300 µM |

Further lines, with some results ahead:

| MIC [4] [µM] | MIC [5] [µM] | MIC [6] [µM] | MIC [8] [µM] | Structure (SMILES) | MIC [1] [µM] | MIC [2] [µM] | MIC (Escherichia coli K91BK) [µM] | further results |
| --- | --- | --- | --- | --- | --- | --- | --- | --- |
| 1.56 (≈ 4.44 µg/mL) | 3.12 (≈ 8.9 µg/mL) | 1.56 (≈ 4.44 µg/mL) | 3.12 (≈ 8.9 µg/mL) | CC[C@H](C)[C@H](NC(=O)[C@@H](NC(=O)[C@@H](N)CCCN=C(N)N)[C@@H](C)CC)C(=O)N[C@@H](CC(=O)O)C(=O)N[C@@H](CC(C)C)C(=O)N[C@@H](CC(C)C)C(=O)N[C@@H](C)C(=O)N[C@@H](CCCN=C(N)N)C(=O)N[C@H](C(=O)N[C@@H](CCCN=C(N)N)C(=O)N[C@@H](CCCN=C(N)N)C(=O)N1CCC[C@H]1C(=O)N[C@@H](CCC(N)=O)C(=O)N[C@@H](CCCCN)C(=O)N1CCC[C@H]1C(=O)N[C@@H](CCCCN)C(=O)N[C@@H](Cc1ccccc1)C(=O)N[C@H](C(=O)N[C@H](C(=O)N[C@H](C(=O)N[C@@H](Cc1c[nH]c2ccccc12)C(=O)N[C@H](C(=O)N[C@@H](CCCN=C(N)N)C(=O)O)C(C)C)C(C)C)[C@@H](C)O)C(C)C)C(C)C [RIIDLLARVRRPQKPKFVTVWVR] |  |  |  | MIC [7]: 1.56 µM (≈ 4.44 µg/mL); MIC [9]: 1.56 µM (≈ 4.44 µg/mL) |
| 0.78 (≈ 1.39 µg/mL) | 12.5 (≈ 22.3 µg/mL) | 3.12 (≈ 5.57 µg/mL) | 3.12 (≈ 5.57 µg/mL) | CC[C@H](C)[C@H](NC(=O)[C@H](CCCCN)NC(=O)[C@H](CCCCN)NC(=O)[C@@H](N)Cc1c[nH]c2ccccc12)C(=O)N1CCC[C@H]1C(=O)N[C@@H](CCCCN)C(=O)N[C@@H](Cc1ccccc1)C(=O)N[C@@H](CC(C)C)C(=O)N[C@@H](Cc1cnc[nH]1)C(=O)N[C@@H](CC(C)C)C(=O)N[C@@H](C)C(=O)N[C@@H](CCCCN)C(=O)N[C@@H](CCCCN)C(=O)N[C@@H](Cc1ccccc1)C(N)=O [WKKIPKFLHLAKKF] |  |  |  | MIC [10]: ≥ 200 µM; MIC [11]: 1.56 µM (≈ 2.78 µg/mL); MIC [12]: ≥ 200 µM; MIC [13]: ≥ 200 µM; MIC (Proteus vulgaris): 3.12 µM (≈ 5.57 µg/mL); MIC [14]: ≥ 200 µM |
